Laboratory results from patent US20220289794A1, “SYNTHETIC ANTIMICROBIAL PEPTIDES” (priority 2019, published 2022).
≈ marks a conversion by molar mass, not a printed value. Read-outs that look alike come from different tables or passages of the source. Residues, ends and D or L forms follow the SMILES beside them.

Columns and labels:
[1] = tested on: Klebsiella pneumoniae (KPC, ATCC BAA-1705); assay: microbe, parasite or virus in culture; details: ATCCBAA1705, 24 h
MRSA (ATCC BAA-1556) = details: MRSA (ATCC BAA-1556), antibiotic alone
[2] = tested on: Pseudomonas aeruginosa (PSA, ATCC 27883); assay: Synergy checkerboard assay (FIC index); format: cell-based; details: Pseudomonas aeruginosa (ATCC 27883), antibiotic alone
[3] = tested on: Methicillin-resistant Staphylococcus aureus MRSA (ATCC BAA-1556); assay: microbe, parasite or virus in culture; details: ATCCBAA1556|MRSA, 24 h
[4] = tested on: Pseudomonas aeruginosa (PSA, ATCC 27883); assay: microbe, parasite or virus in culture; details: ATCC27883, 24 h
[5] = tested on: Escherichia coli (E. Coli, ATCC 25922); details: Table 25; Escherichia coli (ATCC 25922); antibiotic alone
[6] = tested on: Klebsiella pneumoniae (KPC, ATCC BAA-1705); details: Table 26; Klebsiella pneumoniae (ATCC BAA-1705); antibiotic alone
[7] = tested on: Escherichia coli (E. Coli, ATCC 25922); assay: microbe, parasite or virus in culture; details: ATCC25922, 24 h
[8] = tested on: Methicillin-resistant Staphylococcus aureus MRSA (ATCC BAA-1556); format: cell-based
Description: (§1) All bacteria pathogens tested clinically reported multi-drug resistant strains. The antibacterial activity was tested against Gram-negative strains namely; Pseudomonas aeruginosa (PSA), Klebsiella pneumoniae (KPC), Escherichia coli (E. coli) and Gram-positive Methicillin-resistant Staphylococcus aureus (MRSA). The minimum inhibitory concentration (MIC) is the lowest concentration of the antibiotic that inhibits microbial growths. MIC is determined by visual inspection or use of spectrophotometer plate reader to determine media turbidity. On the other hand, the minimum bactericidal concentration (MBC) is the lowest concentration that kills […] of bacterial growth. Cytotoxicity of peptides in the hepatic cell line, human skin fibroblast cell line, heart/myocardium cells, and human lung fibroblast cells is shown in FIGS. 36-46). […] (IFX-315)-Au-NP with antibiotics are shown in FIGS. 49-58 when the gold nanoparticles are formed by the peptide followed by addition of the antibiotic. […] (IFX-301) with antibiotics (1:1 ratio) first and then used in the synthesis of Au-NP in antibacterial activities is shown in FIGS. 59-68.
(§2) The MBC is identified by determining the lowest concentration of antibacterial agent that reduces the viability (concentration of peptides necessary to achieve a bactericidal effect) of the initial bacterial inoculum by ≥99.9%.

[9] = tested on: Escherichia coli (ATCC 25922); format: cell-based
Description: as §1, §2

[10] = tested on: Methicillin-resistant Staphylococcus aureus MRSA (ATCC BAA-1556); details: ATCC BAA-1556
[11] = tested on: Klebsiella pneumoniae (ATCC BAA-1705); details: ATCC BAA-1705
[12] = tested on: Escherichia coli (ATCC 25922); details: ATCC 25922
[13] = tested on: Pseudomonas aeruginosa (ATCC 27883); details: ATCC 27883
[14] = tested on: Enterococcus faecium ATCC 27270; details: ATCC 27270
[15] = read-out: Klebsiella pneumoniae (ATCC BAA-1705) MIC, Table 29, [R6W4] (IFX-318), antibiotics alone and PHY-MIX (1:1 w/w)
[16] = read-out: Klebsiella pneumoniae (ATCC BAA-1705) MIC, Table 30, [R5W4K] (IFX-315), antibiotics alone and PHY-MIX (1:1 w/w)
[17] = read-out: Klebsiella pneumoniae (ATCC BAA-1705) MIC, Table 31, [R5W4] (IFX-301), antibiotics alone and PHY-MIX (1:1 w/w)
[18] = read-out: MRSA (ATCC BAA-1556) MIC, Table 31, [R5W4] (IFX-301), antibiotics alone and PHY-MIX (1:1 w/w)
[19] = read-out: Pseudomonas aeruginosa (ATCC 27883) MIC, Table 29, [R6W4] (IFX-318), antibiotics alone and PHY-MIX (1:1 w/w)
[20] = read-out: Pseudomonas aeruginosa (ATCC 27883) MIC, Table 30, [R5W4K] (IFX-315), antibiotics alone and PHY-MIX (1:1 w/w)
[21] = read-out: Escherichia coli (ATCC 25922) MIC, Table 30, [R5W4K] (IFX-315), antibiotics alone and PHY-MIX (1:1 w/w)
[22] = read-out: Escherichia coli (ATCC 25922) MIC, Table 31, [R5W4] (IFX-301), antibiotics alone and PHY-MIX (1:1 w/w)

N=C(N)NCCC[C@@H]1NC(=O)[C@H](CCCNC(=N)N)NC(=O)[C@H](CCCNC(=N)N)NC(=O)[C@H](CCCNC(=N)N)NC(=O)[C@H](Cc2c[nH]c3ccccc23)NC(=O)[C@H](Cc2c[nH]c3ccccc23)NC(=O)[C@H](Cc2c[nH]c3ccccc23)NC(=O)[C@H](Cc2c[nH]c3ccccc23)NC(=O)[C@H](CCCNC(=N)N)NC(=O)[C@H](CCCNC(=N)N)NC(=O)[C@H](CCCNC(=N)N)NC1=O [[R7W4] (IFX-322)] (cyclo(RRRRRRRWWWW))
MIC MRSA ATCC BAA-1556 (MRSA): 16 µg/mL (≈ 8.7 µM)
MIC Klebsiella pneumoniae (ATCC BAA-1705) (KPC): 64 µg/mL (≈ 34.8 µM)
MIC Escherichia coli (ATCC 25922) (E. coli): 32 µg/mL (≈ 17.4 µM)
MIC Pseudomonas aeruginosa (ATCC 27883) (PSA): 32 µg/mL (≈ 17.4 µM)

NC[C@H]1O[C@H](O[C@H]2[C@H](O)[C@@H](O[C@H]3O[C@H](CO)[C@@H](O)[C@H](N)[C@H]3O)[C@H](N)C[C@@H]2N)[C@H](N)C[C@@H]1O [Tobramycin]
MIC [1, 15]: 16 µg/mL (≈ 34.2 µM)
MIC [1, 16]: 16 µg/mL (≈ 34.2 µM)
MIC [1, 17]: 16 µg/mL (≈ 34.2 µM)
MIC of antibiotic (MRSA (ATCC BAA-1556)): 0.5 µg/mL
MIC of antibiotic (MRSA (ATCC BAA-1556); Table 25): 0.5 µg/mL
MIC of antibiotic ([2]; Table 26): 0.5 µg/mL
antibiotic MIC ([2]; Table 27): 0.5 µg/mL
MIC ([3]; read-out: MRSA (ATCC BAA-1556) MIC, Table 30, [R5W4K] (IFX-315), antibiotics alone and PHY-MIX (1:1 w/w)): 0.5 µg/mL (≈ 1.07 µM)
MIC [3, 18]: 0.5 µg/mL (≈ 1.07 µM)
MIC [4, 19]: 0.5 µg/mL (≈ 1.07 µM)
MIC [4, 20]: 0.5 µg/mL (≈ 1.07 µM)
MIC ([4]; read-out: Pseudomonas aeruginosa (ATCC 27883) MIC, Table 31, [R5W4] (IFX-301), antibiotics alone and PHY-MIX (1:1 w/w)): 0.5 µg/mL (≈ 1.07 µM)
MIC of antibiotic [5]: 8 µg/mL
MIC of antibiotics [6]: 16 µg/mL
MIC [7, 21]: 8 µg/mL (≈ 17.1 µM)
MIC [7, 22]: 8 µg/mL (≈ 17.1 µM)

N=C(N)NCCC[C@H](NC(=O)[C@H](CCCNC(=N)N)NC(=O)[C@H](CCCNC(=N)N)NC(=O)[C@H](CCCNC(=N)N)NC(=O)[C@H](CS)NC(=O)[C@H](Cc1c[nH]c2ccccc12)NC(=O)[C@H](Cc1c[nH]c2ccccc12)NC(=O)[C@H](Cc1c[nH]c2ccccc12)NC(=O)[C@@H](N)Cc1c[nH]c2ccccc12)C(=O)N[C@@H](CS)C(=O)O [IFX-332] (H-WWWWCRRRRC-OH)
MRSA (ATCC BAA-1556) MBC [8]: 128 µg/mL
E. coli (ATCC 25922) MBC [9]: 256 µg/mL
MRSA (ATCC BAA-1556) MIC [10]: 64 µg/mL
KPC (ATCC BAA-1705) MIC [11]: 512 µg/mL
E. coli (ATCC 25922) MIC [12]: 128 µg/mL
PSA (ATCC 27883 MIC) [13]: 256 µg/mL

N=C(N)NCCC[C@@H]1NC(=O)[C@H](CCCNC(=N)N)NC(=O)[C@H](CCCNC(=N)N)NC(=O)[C@H](CCCNC(=N)N)NC(=O)[C@H](Cc2c[nH]c3ccccc23)NC(=O)[C@H](Cc2c[nH]c3ccccc23)NC(=O)[C@H](Cc2c[nH]c3ccccc23)NC(=O)[C@H](Cc2c[nH]c3ccccc23)NC(=O)[C@H](CCCNC(=N)N)NC(=O)[C@H](CCCNC(=N)N)NC1=O [[R6W4] (IFX-318)] (cyclo(RRRRRRWWWW))
MIC (MRSA): 8 µg/mL (≈ 4.76 µM)
MIC MRSA ATCC BAA-1556 (MRSA): 4 µg/mL (≈ 2.38 µM)
MIC Klebsiella pneumoniae (ATCC BAA-1705) (KPC): 64 µg/mL (≈ 38.1 µM)
MIC Escherichia coli (ATCC 25922) (E. coli): 32 µg/mL (≈ 19 µM)
MIC Pseudomonas aeruginosa (ATCC 27883) (PSA): 16 µg/mL (≈ 9.51 µM)

H-RRRRRWWWWK-OH [Linear R5W4K (SEQ ID NO. 36)]
MIC MRSA ATCC BAA-1556 (MRSA): 8 µg/mL
MIC Klebsiella pneumoniae (ATCC BAA-1705) (KPC): 64 µg/mL
MIC Escherichia coli (ATCC 25922) (E. coli): 32 µg/mL
MIC Pseudomonas aeruginosa (ATCC 27883) (PSA): 32 µg/mL

N=C(N)NCCC[C@@H]1NC(=O)[C@H](CCCNC(=N)N)NC(=O)[C@H](CCCNC(=N)N)NC(=O)[C@H](Cc2c[nH]c3ccccc23)NC(=O)[C@H](Cc2c[nH]c3ccccc23)NC(=O)[C@H](Cc2c[nH]c3ccccc23)NC(=O)[C@H](Cc2c[nH]c3ccccc23)NC(=O)[C@H](Cc2c[nH]c3ccccc23)NC(=O)[C@H](CCCNC(=N)N)NC(=O)[C@H](CCCNC(=N)N)NC1=O [[R5W5] (IFX-314)] (cyclo(RRRRRWWWWW))
MIC MRSA ATCC BAA-1556 (MRSA): 4 µg/mL (≈ 2.34 µM)
MIC Klebsiella pneumoniae (ATCC BAA-1705) (KPC): 32 µg/mL (≈ 18.7 µM)
MIC Escherichia coli (ATCC 25922) (E. coli): 16 µg/mL (≈ 9.35 µM)
MIC Pseudomonas aeruginosa (ATCC 27883) (PSA): 32 µg/mL (≈ 18.7 µM)

N=C(N)NCCC[C@@H]1NC(=O)[C@H](CCCNC(=N)N)NC(=O)[C@H](Cc2c[nH]c3ccccc23)NC(=O)[C@H](Cc2c[nH]c3ccccc23)NC(=O)[C@H](Cc2c[nH]c3ccccc23)NC(=O)[C@H](CCCNC(=N)N)NC1=O [[R3W3] (IFX-302)] (cyclo(WWWRRR))
MIC MRSA ATCC BAA-1556 (MRSA): 16 µg/mL (≈ 15.6 µM)
MIC Klebsiella pneumoniae (ATCC BAA-1705) (KPC): 64 µg/mL (≈ 62.3 µM)
MIC Escherichia coli (ATCC 25922) (E. coli): 32 µg/mL (≈ 31.2 µM)
MIC Pseudomonas aeruginosa (ATCC 27883) (PSA): 128 µg/mL (≈ 125 µM)

N=C(N)NCCC[C@@H]1NC(=O)[C@H](CCCNC(=N)N)NC(=O)[C@H](CCCNC(=N)N)NC(=O)[C@H](Cc2c[nH]c3ccccc23)NC(=O)[C@H](Cc2c[nH]c3ccccc23)NC(=O)[C@H](Cc2c[nH]c3ccccc23)NC(=O)[C@H](Cc2c[nH]c3ccccc23)NC(=O)[C@H](CCCNC(=N)N)NC1=O [[R4W4] (IFX-326)] (cyclo(RRRRWWWW))
MIC MRSA ATCC BAA-1556 (MRSA): 4 µg/mL (≈ 2.92 µM)
MIC Klebsiella pneumoniae (ATCC BAA-1705) (KPC): 32 µg/mL (≈ 23.4 µM)
MIC Escherichia coli (ATCC 25922) (E. coli): 16 µg/mL (≈ 11.7 µM)
MIC Pseudomonas aeruginosa (ATCC 27883) (PSA): 64 µg/mL (≈ 46.7 µM)

Cc1ncc([N+](=O)[O-])n1CCO [Metronidazole]
MIC ([1]; read-out: Klebsiella pneumoniae (ATCC BAA-1705) MIC, Table 28, IFX-031, antibiotics alone and PHY-MIX (1:1 w/w)): > 32 µg/mL
MIC [1, 15]: > 32 µg/mL
MIC [1, 16]: > 32 µg/mL
MIC [1, 17]: > 32 µg/mL
MIC ([3]; read-out: MRSA (ATCC BAA-1556) MIC, Table 28, IFX-031, antibiotics alone and PHY-MIX (1:1 w/w)): > 32 µg/mL
MIC [3, 18]: > 32 µg/mL
MIC [4, 19]: > 32 µg/mL
MIC [4, 20]: > 32 µg/mL
MIC ([7]; read-out: Escherichia coli (ATCC 25922) MIC, Table 28, IFX-031, antibiotics alone and PHY-MIX (1:1 w/w)): > 32 µg/mL
MIC ([7]; read-out: Escherichia coli (ATCC 25922) MIC, Table 29, [R6W4] (IFX-318), antibiotics alone and PHY-MIX (1:1 w/w)): > 32 µg/mL
MIC [7, 21]: > 32 µg/mL
MIC [7, 22]: > 32 µg/mL

N=C(N)NCCC[C@@H]1NC(=O)[C@H](CCCNC(=N)N)NC(=O)[C@H](CCCNC(=N)N)NC(=O)[C@H](Cc2c[nH]c3ccccc23)NC(=O)[C@H](Cc2c[nH]c3ccccc23)NC(=O)[C@H](Cc2c[nH]c3ccccc23)NC(=O)[C@H](Cc2c[nH]c3ccccc23)NC(=O)[C@H](CCCNC(=N)N)NC(=O)[C@H](CCCNC(=N)N)NC1=O [[R5W4] (IFX-301)]
MIC (MRSA): 4 µg/mL (≈ 2.62 µM)
MIC MRSA ATCC BAA-1556 (MRSA): 4 µg/mL (≈ 2.62 µM)
MIC Klebsiella pneumoniae (ATCC BAA-1705) (KPC): 32 µg/mL (≈ 21 µM)
MIC [14]: 8 µg/mL (≈ 5.24 µM)
MIC Escherichia coli (ATCC 25922) (E. coli): 16 µg/mL (≈ 10.5 µM)
MIC Pseudomonas aeruginosa (ATCC 27883) (PSA): 32 µg/mL (≈ 21 µM)
